Experimental data published in patent US7652061B2, “N-acyl nitrogen heterocycles as ligands of peroxisome proliferator-activated receptors” (Novartis A.G., priority 2003, dated 2010).

Columns and labels:
[1] = target: T1, hPPARγ ligand binding domain (GST-hPPARγ LBD) (Homo sapiens, UniProt P37231); test: PPARγ functional binding assay (CARLA, TR-FRET); assay type: biochemical; conditions: SRC-1 peptide recruitment, 3 hours at RT, read-out: EC50 in the PPARγ receptor binding assay
T1 construct: GST-hPPARγ LBD (amino acids 175-476); made in house; host or cells: E. coli BL21(DE3), pGEX vector
T1 sequence (P37231 175-476 isoform P37231-2): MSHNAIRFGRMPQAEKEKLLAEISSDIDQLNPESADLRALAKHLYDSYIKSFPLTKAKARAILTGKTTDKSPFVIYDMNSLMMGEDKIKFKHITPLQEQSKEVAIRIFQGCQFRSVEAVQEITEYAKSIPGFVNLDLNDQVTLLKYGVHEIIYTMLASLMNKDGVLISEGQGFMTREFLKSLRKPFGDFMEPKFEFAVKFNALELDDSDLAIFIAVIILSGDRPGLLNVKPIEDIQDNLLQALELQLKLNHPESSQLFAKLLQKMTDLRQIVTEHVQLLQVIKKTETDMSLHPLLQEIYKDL
Experimental: (§1) The in vitro functional binding to the PPARα, PPARδ and PPARγ receptors is determined as follows:
(§2) The functional binding assays for the PPARα, PPARδ and PPARγ receptors are a variation of the coactivator-dependent receptor ligand assay (CARLA) (see Krey et al., “Fatty Acids, Eicosanoids, and Hypolipidemic Agents Identified as Ligands of Peroxisome Proliferator-Activated Receptors by Coactivator-Dependent Receptor Ligand Assay”, Molecular Endocrinology, Vol. 11, pp. 779-791 (1997)). The present CARLA assays use a TR-FRET detection method previously reviewed (see Hemmila, “LANCE: Homogeneous Assay Plafform for HTS”, J. Biomol. Screening, Vol. 4, pp. 303-307 (1999); Mathis, “HTRF Technology”, J. Biomol. Screening, Vol. 4, pp. 309-313 (1999)). […] This brings the Eu-labeled anti-GST antibody and the strepavidin-labeled APC in close proximity, thereby facilitating fluorescence energy transfer. […] After mixing all components, the reaction mixture stands for 3 hours at RT before reading the TR-FRET (Time-Resolved Fluorescence Resonance Energy Transfer) signal on a Wallac Victor 2 plate reader (measuring the ratio of signals at […]). […]

[2] = target: T2, hPPARα ligand binding domain (GST-hPPARα LBD) (Homo sapiens, UniProt Q07869); test: PPARα functional binding assay (CARLA, TR-FRET); assay type: biochemical; conditions: SRC-1 peptide recruitment, 3 hours at RT, read-out: EC50 in the PPARα receptor binding assay
T2 construct: made in house; host or cells: E. coli BL21(DE3), pGEX vector
T2 sequence (Q07869 167-468): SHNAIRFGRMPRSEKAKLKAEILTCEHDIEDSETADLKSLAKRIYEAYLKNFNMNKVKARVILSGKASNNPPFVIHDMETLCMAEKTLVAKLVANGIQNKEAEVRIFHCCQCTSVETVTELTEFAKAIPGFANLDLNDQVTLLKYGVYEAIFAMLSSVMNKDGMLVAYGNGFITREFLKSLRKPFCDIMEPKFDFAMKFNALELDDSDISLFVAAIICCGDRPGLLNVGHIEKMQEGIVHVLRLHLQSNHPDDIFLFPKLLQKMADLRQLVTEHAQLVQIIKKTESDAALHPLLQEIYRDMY
Experimental: as §1, §2

In the case of Cc1oc(-c2ccc(Cl)c(F)c2)nc1COc1cccc(C(C)(C)C(=O)N2CCC[C@@H]2C(=O)O)c1 [Example 9, (R)-1-(2-{3-[2-(4-Chloro-3-fluoro-phenyl)-5-methyl-oxazol-4-yl-methoxy]-phenyl}-2-methyl-propionyl)-pyrrolidine-2-carboxylic acid], the EC50 [1] is reported as ~1800 nM and the EC50 [2] is reported as ~3 nM.
